Data as given in patent publication US11820822B2, “Methods for sensitizing cancer cells to T cell-mediated killing by modulating molecular pathways” (DANA-FARBER CANCER INSTITUTE, INC., priority 2017, dated 2023).

Key:
[1] = test system: B16F10-Cas9 cells pulsed with SIINFEKL peptide, co-cultured with OT-I T cells; assay: Genome-scale CRISPR-Cas9 screen, selection with OT-I T cells; format: cell-based, mouse; conditions: Table 3; B16F10-Cas9 cells pulsed with SIINFEKL, co-cultured with OT-I T cells 1:1 for one day; negative = depleted, positive = enriched
[2] = test system: B16F10-Cas9 cells co-cultured with Pmel-1 T cells; assay: Genome-scale CRISPR-Cas9 screen, selection with Pmel-1 T cells; format: cell-based, mouse; conditions: Table 3; B16F10-Cas9 cells pre-treated with IFNγ, co-cultured with Pmel-1 T cells 1:1 for three days; negative = depleted, positive = enriched

Sequence	OT1 (sgRNA Log(2) fold change, OT-I selection versus control T cells) [1]	Pmel+ (sgRNA Log(2) fold change, Pmel-1 selection versus control T cells) [2]
GCAAATGTAGAAATGTCGTG (chemistry not fully specified)	-2.34	-0.65
CGGATGGCCACACGTAACAG (chemistry not fully specified)	0.20	3.00
TGTGAATGCTATGACGAGCT (chemistry not fully specified)	-2.59	0.02
AGGGAACCTCACTTCCAAGT (chemistry not fully specified)	3.12	4.83
ACGCAATGAAAAGGTTTAGG (chemistry not fully specified)	-2.24	2.19
GACAAGATGACAAACCTGGT (chemistry not fully specified)	1.65	3.45
ATGCAGATAATCCGCCAAAG (chemistry not fully specified)	-2.49	0.00
TGAAGCTAATGACCATGAGC (chemistry not fully specified)	-2.77	-0.59
TGAATAAATCCATCAGACAG (chemistry not fully specified)	2.46	9.92
TCTTCAGGAGAGAATACCAT (chemistry not fully specified)	3.69	3.86
AAGGGCCACTTACAATTAGG (chemistry not fully specified)	-0.44	2.10
TATACCAATACGCAAATACC (chemistry not fully specified)	4.07	4.34
AGATTGTCAACAATGGAACT (chemistry not fully specified)	-2.17	0.00
TCTGTTGAAAGAGCGCCAAA (chemistry not fully specified)	-0.71	-3.36
GCCAACATCTGCTTACTCGC (chemistry not fully specified)	-2.55	-1.97
GAATCCTCCAGAAGGAATCG (chemistry not fully specified)	0.26	2.99
CAGTGTCACAACCCACCGGA (chemistry not fully specified)	-2.75	0.23
CACTGCGAGACCAATCTAGA (chemistry not fully specified)	1.44	2.24
TGTTCTAGGAAACTACATGG (chemistry not fully specified)	-2.76	1.10
GGCCCCGACTCAGACCCGCG (chemistry not fully specified)	5.15	3.60
ATAGAAATCTGACACTGCCG (chemistry not fully specified)	-2.12	0.00
AGGTCACAATGTACCAACCC (chemistry not fully specified)	-1.71	-2.61
TATGGAGCGGTGTATGCCCG (chemistry not fully specified)	-3.33	1.27

Sequence	OT1 (sgRNA Log(2) fold change, OT-I selection versus control T cells) [1]	Pmel+ (sgRNA Log(2) fold change, Pmel-1 selection versus control T cells) [2]
TTATTGAGTCAAGAAAAGGT (chemistry not fully specified)	-3.67	-1.87
ACAGGGAAAGCATGGGACAC (chemistry not fully specified)	-2.35	0.76
CACCGGATCGTCCAATTCCG (chemistry not fully specified)	-2.82	-0.88
GAATTGCAACGCCCACACCG (chemistry not fully specified)	-3.93	0.39
GCTGTGGGGACTGCTAAAAG (chemistry not fully specified)	-1.12	2.22
CCAAACACCCCACATATGGT (chemistry not fully specified)	-2.24	-0.79
CAATAATGCTGGTCTACGTG (chemistry not fully specified)	0.89	2.58
GGTTCGCTTCTTCCAAACCA (chemistry not fully specified)	-2.41	-2.08
TCAGCAACTGAGAACTCACT (chemistry not fully specified)	-1.37	-2.37
CATAGCCAGAACAGTTGACC (chemistry not fully specified)	-2.44	-0.66
TAATTGCTGAGAATGTACTC (chemistry not fully specified)	-2.54	0.00
CCCACGAATTCGTCACAGGG (chemistry not fully specified)	1.32	2.63
CCTTTAGTAGCAGAAGCCGC (chemistry not fully specified)	-2.95	0.73
CAGGACTTCTGGTCTATCCG (chemistry not fully specified)	-3.14	-1.47
TATGTGGAGCATAACCGGAG (chemistry not fully specified)	2.95	3.80
GGAATCCCTGTGCTGATCGT (chemistry not fully specified)	-2.76	-0.49
GCGTCGTCGACTTATGACTT (chemistry not fully specified)	-3.36	-0.05
ATTTCAAGAGATTCTATGCT (chemistry not fully specified)	-2.59	1.73
CAAAGTCTGCTGTCCGACCT (chemistry not fully specified)	0.41	2.57
TTTACAATCCTCCAAAGTCG (chemistry not fully specified)	-3.13	-0.68
CAGCATTGACAATACGACCA (chemistry not fully specified)	-3.84	0.62
ATGAGGTACAGCAGAAAGGT (chemistry not fully specified)	-2.05	0.90
TTGTGAGGCAAACTGAACGA (chemistry not fully specified)	-2.11	-0.86
